{"source": "ChEMBL document CHEMBL3046248", "about": "“Synthesis and Fungicidal Activities of 2-Alkoxyiminoacetamides with a 4, 5-Dihydroisoxazole Ring” (1998)"}
{"system": "Pseudoperonospora cubensis", "test": "Fungicidal activity against Pseudoperonospora cubensis in cucumber plant assessed as cucumber downy mildew disease control at 125 ppm at 22 +/- 2 degC, 98% RH measured after 10 days", "format": "functional", "units": {"Activity": "%"}}
{"smiles": "CO/N=C(\\C#N)C(=O)NC1=NOC(C(C)(C)C)C1", "note": "(stereo not given)", "Activity": 70}
{"smiles": "CCO/N=C(\\C#N)C(=O)NC1=NOC(C)C1", "note": "(stereo not given)", "Activity": 70}
{"smiles": "CO/N=C(\\C#N)C(=O)NCC1=NOC(c2ccccc2)C1", "note": "(stereo not given)", "Activity": 70}
{"smiles": "CO/N=C(\\C#N)C(=O)NCC#N", "Activity": 70}
{"smiles": "CC(C)O/N=C(\\C#N)C(=O)NCC1=NOC(C)C1", "note": "(stereo not given)", "Activity": 70}
{"smiles": "CO/N=C(\\C(=N)SC)C(=O)NC1=NOC(C)(C)C1", "Activity": 70}
{"smiles": "CC(C)O/N=C(\\C#N)C(=O)NC1=NOC(C)C1", "note": "(stereo not given)", "Activity": 70}
{"system": "Pseudoperonospora cubensis", "test": "Fungicidal activity against Pseudoperonospora cubensis in cucumber plant assessed as cucumber downy mildew disease control at 7.8 ppm at 22 +/- 2 degC, 98% RH measured after 10 days", "format": "functional", "units": {"Activity": "%"}}
{"smiles": "CO/N=C(\\C#N)C(=O)NCC1=NOC(C)(C)C1", "Activity": 70}
{"smiles": "CO/N=C(\\C#N)C(=O)NCC1=NOC(C)C1", "note": "(stereo not given)", "Activity": 70}
{"smiles": "CO/N=C(\\C#N)C(=O)NC1=NOC(C)(C)C1", "Activity": 70}
{"system": "Pseudoperonospora cubensis", "test": "Fungicidal activity against Pseudoperonospora cubensis in cucumber plant assessed as cucumber downy mildew disease control at 31.3 ppm at 22 +/- 2 degC, 98% RH measured after 10 days", "format": "functional", "units": {"Activity": "%"}}
{"smiles": "CC1CC(CNC(=O)/C(C#N)=N/OCc2ccccc2)=NO1", "note": "(stereo not given)", "Activity": 70}
{"smiles": "CCO/N=C(\\C#N)C(=O)NC1=NOC(C)C1", "note": "(stereo not given)", "Activity": 70}
{"smiles": "CO/N=C(C(=O)NC1=NOC(C)(C)C1)\\C(N)=N\\O", "Activity": 70}
{"smiles": "CO/N=C(C(=O)NC1=NOC(C)C1)\\C(N)=N\\O", "note": "(stereo not given)", "Activity": 70}
{"smiles": "CO/N=C(\\C#N)C(=O)NCC#N", "Activity": 70}
{"smiles": "CCO/N=C(\\C#N)C(=O)NCC1=NOC(C)C1", "note": "(stereo not given)", "Activity": 70}
{"smiles": "CO/N=C(\\C#N)C(=O)NC1=NOC(C)C1", "note": "(stereo not given)", "Activity": 70}
{"smiles": "CCO/N=C(C(=O)NC1=NOC(C)(C)C1)\\C(N)=N\\O", "Activity": 70}
{"smiles": "CO/N=C(\\C#N)C(=O)NCC1=NOC(C(C)(C)C)C1", "note": "(stereo not given)", "Activity": 70}
{"smiles": "CO/N=C(\\C#N)C(=O)NCc1cccnc1", "Activity": 70}
{"smiles": "CO/N=C(\\C#N)C(=O)NCc1cc(C)on1", "Activity": 70}
{"smiles": "CC(C)O/N=C(\\C#N)C(=O)NC1=NOC(C)C1", "note": "(stereo not given)", "Activity": 70}
{"smiles": "CCC1(C)CC(NC(=O)C(=N/OC)/C(N)=N/O)=NO1", "note": "(stereo not given)", "Activity": 70}
{"system": "Pseudoperonospora cubensis", "test": "Fungicidal activity against Pseudoperonospora cubensis in cucumber plant assessed as cucumber downy mildew disease control at 500 ppm at 22 +/- 2 degC, 98% RH measured after 10 days", "format": "functional", "units": {"Activity": "%"}}
{"smiles": "CC1(C)CC(NC(=O)C(=N/OCc2ccccc2)/C(N)=N/O)=NO1", "Activity": "<70"}
{"smiles": "CO/N=C(\\C(=N)OC)C(=O)NC1=NOC(C)(C)C1", "Activity": "<70"}
{"smiles": "CO/N=C(\\C#N)C(=O)NCc1ccsc1", "Activity": "<70"}
{"smiles": "CNC(=O)/C(=N\\OC)C(=O)NC1=NOC(C)(C)C1", "Activity": "<70"}
{"smiles": "C=CCNC(=O)/C(C#N)=N/OC", "Activity": "<70"}
{"smiles": "CO/N=C(/C(=O)NC1=NOC(C)(C)C1)C(=O)OC", "Activity": "<70"}
{"smiles": "CC1CC(NC(=O)/C(C#N)=N/OCc2ccccc2)=NO1", "note": "(stereo not given)", "Activity": "<70"}
{"smiles": "C#CCNC(=O)/C(C#N)=N/OC", "Activity": "<70"}
{"smiles": "N#C/C(=N\\OCc1ccccc1)C(=O)NCCCl", "Activity": "<70"}
{"smiles": "CO/N=C(\\C(N)=O)C(=O)NC1=NOC(C)(C)C1", "Activity": "<70"}
{"smiles": "CO/N=C(\\C#N)C(=O)NC1=NOC(c2ccccc2)C1", "note": "(stereo not given)", "Activity": "<70"}
{"smiles": "CO/N=C(/C(=O)NC1=NOC(C)(C)C1)C(=O)N(C)C", "Activity": "<70"}
